Measured values as given in ChEMBL document CHEMBL4840367, “2-Phenylcyclopropylmethylamine Derivatives as Dopamine D2 Receptor Partial Agonists: Design, Synthesis, and Biological Evaluation” (J Med Chem, 2021).
Where “and” joins values, the source holds several entries; their conditions need not be identical. Identical values can stand only once.

Key:
[1] = target: T1, 5-hydroxytryptamine receptor 2C (Homo sapiens, UniProt P28335)
T1 sequence (P28335 whole entry): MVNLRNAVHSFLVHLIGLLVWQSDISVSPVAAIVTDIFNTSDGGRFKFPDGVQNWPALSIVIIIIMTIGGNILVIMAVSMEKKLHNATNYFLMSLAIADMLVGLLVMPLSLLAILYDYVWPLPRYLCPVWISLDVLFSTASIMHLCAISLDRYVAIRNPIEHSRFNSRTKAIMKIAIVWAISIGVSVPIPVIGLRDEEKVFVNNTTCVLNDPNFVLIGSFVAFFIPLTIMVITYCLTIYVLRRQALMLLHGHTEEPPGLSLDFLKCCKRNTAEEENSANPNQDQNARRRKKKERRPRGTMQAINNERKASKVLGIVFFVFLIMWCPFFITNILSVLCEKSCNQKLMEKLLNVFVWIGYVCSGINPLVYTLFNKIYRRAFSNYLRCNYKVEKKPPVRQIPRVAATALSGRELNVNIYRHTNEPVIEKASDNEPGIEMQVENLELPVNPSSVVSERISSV

[2] = target: 5-hydroxytryptamine receptor 2A (Homo sapiens, UniProt P28223); assay type: cell membranes, HEK293T, Membrane
Sequence of 5-hydroxytryptamine receptor 2A (P28223 whole entry): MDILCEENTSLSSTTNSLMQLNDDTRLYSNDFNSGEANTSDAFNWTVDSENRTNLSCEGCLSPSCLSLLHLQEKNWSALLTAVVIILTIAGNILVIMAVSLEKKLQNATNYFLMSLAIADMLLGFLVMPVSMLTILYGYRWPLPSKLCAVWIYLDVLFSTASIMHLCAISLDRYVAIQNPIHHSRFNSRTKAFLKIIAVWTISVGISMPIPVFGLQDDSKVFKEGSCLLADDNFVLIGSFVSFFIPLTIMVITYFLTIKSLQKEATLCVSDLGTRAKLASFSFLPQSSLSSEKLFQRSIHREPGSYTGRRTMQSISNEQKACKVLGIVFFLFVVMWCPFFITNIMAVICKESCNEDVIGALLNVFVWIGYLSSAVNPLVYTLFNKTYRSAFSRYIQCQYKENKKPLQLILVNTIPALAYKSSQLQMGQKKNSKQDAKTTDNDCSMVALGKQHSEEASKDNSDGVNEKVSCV

D(1A) dopamine receptor = D(1A) dopamine receptor (Homo sapiens, UniProt P21728)
Sequence of D(1A) dopamine receptor (P21728 whole entry): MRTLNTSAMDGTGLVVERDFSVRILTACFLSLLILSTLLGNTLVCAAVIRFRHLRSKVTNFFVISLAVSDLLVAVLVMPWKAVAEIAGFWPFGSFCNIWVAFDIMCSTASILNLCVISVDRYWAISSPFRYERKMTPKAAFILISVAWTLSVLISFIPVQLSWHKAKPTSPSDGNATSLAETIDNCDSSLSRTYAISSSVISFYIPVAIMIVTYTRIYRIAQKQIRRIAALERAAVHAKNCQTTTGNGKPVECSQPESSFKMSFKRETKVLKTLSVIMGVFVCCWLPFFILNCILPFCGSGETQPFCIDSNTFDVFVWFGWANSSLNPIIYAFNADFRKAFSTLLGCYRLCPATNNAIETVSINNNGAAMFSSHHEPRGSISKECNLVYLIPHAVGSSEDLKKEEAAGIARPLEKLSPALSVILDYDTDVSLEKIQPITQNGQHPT

D(4) dopamine receptor = target: T2, D(4) dopamine receptor (Homo sapiens, UniProt P21917)
T2 sequence (P21917 whole entry): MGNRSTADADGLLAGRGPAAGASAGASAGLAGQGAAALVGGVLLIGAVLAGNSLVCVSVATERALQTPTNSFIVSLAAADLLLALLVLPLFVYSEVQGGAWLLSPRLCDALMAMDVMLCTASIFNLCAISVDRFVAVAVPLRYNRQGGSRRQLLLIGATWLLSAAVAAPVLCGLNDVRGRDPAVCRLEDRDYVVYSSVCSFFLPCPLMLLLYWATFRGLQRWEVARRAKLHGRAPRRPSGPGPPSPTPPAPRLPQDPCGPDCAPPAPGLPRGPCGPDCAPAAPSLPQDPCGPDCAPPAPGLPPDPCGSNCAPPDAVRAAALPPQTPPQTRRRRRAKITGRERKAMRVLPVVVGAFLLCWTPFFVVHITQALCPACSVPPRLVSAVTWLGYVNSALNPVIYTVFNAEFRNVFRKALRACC

D(2) dopamine receptor [3] = target: T3, D(2) dopamine receptor (Homo sapiens, UniProt P14416); assay type: cell membranes, HEK293T, Membrane
T3 sequence (P14416 whole entry): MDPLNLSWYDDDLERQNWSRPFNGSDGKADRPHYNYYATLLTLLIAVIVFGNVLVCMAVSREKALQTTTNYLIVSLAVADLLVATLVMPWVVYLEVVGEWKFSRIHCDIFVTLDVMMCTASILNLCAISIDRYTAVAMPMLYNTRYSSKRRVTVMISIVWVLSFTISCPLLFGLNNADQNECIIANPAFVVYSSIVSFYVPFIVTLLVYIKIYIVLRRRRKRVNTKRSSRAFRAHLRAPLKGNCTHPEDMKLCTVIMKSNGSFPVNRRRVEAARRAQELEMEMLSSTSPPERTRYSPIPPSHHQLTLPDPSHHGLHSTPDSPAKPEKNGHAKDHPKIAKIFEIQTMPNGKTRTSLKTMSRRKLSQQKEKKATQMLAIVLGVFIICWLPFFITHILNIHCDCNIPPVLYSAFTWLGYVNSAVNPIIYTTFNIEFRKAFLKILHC

D(2) dopamine receptor [4] = target: T3, D(2) dopamine receptor
D(2) dopamine receptor [5] = target: T3, D(2) dopamine receptor; remark: listed apart in the source
in vitro [6] = conditions: human, liver microsomes
Description: Metabolic stability in human liver microsomes assessed as half life preincubated for 5 mins followed by NADPH addition measured after 10 mins by LC-MS analysis

in vitro [7] = conditions: mouse, liver microsomes
Description: Metabolic stability in mouse liver microsomes assessed as half life preincubated for 5 mins followed by NADPH addition measured after 10 mins by LC-MS analysis

Ki (D(2) dopamine receptor [3]) [nM] | EC50 (D(2) dopamine receptor [4]) [nM] | EC50 (D(2) dopamine receptor [5]) | SMILES | further results
– | – | – | COc1ccc(Cl)cc1[C@H]1C[C@@H]1CNCCCCOc1ccc2c(c1)NC(=O)CC2 | Ki [1]: 373 nM; Ki [2]: 2090 nM; Ki (D(1A) dopamine receptor): > 10000 nM; Ki (D(4) dopamine receptor): 373 nM
59.9 | 26.3 | 32.4 nM | COc1ccccc1C1CC1CNCCCCOc1ccc2ccc(=O)[nH]c2c1 (stereo not given) | –
384 | 95.5 | 61.7 nM | O=C1CCc2ccc(OCCCCNCC3CC3c3cccc4c3OCCO4)cc2N1 (stereo not given) | –
1330 | – | – | CN(C)C(=O)N[C@H]1CC[C@H](CCNCC2CC2c2cccc(Cl)c2Cl)CC1 (stereo not given in full) | –
2310 | – | – | CN(C)C(=O)N[C@H]1CC[C@H](CCNCC2CC2c2cccc3c2OCCO3)CC1 (stereo not given in full) | –
0.51 | 10.2 | 16.1 nM | O=c1ccc2ccc(OCCCCN3CCN(c4cccc5sccc45)CC3)cc2[nH]1 [BREXPIPRAZOLE] | half-life at 10 min (in vitro [6]): 27.2 min; half-life at 10 min (in vitro [7]): 17.2 min
156 | 11.2 | 7.08 nM | COc1ccccc1C1CC1CNCCCOc1ccc2ccc(=O)[nH]c2c1 (stereo not given) | –
– | – | – | COc1ccc(F)cc1[C@H]1C[C@@H]1CNCCCCOc1ccc2ccc(=O)[nH]c2c1 | Ki [1]: 122 nM; Ki [2]: 1410 nM; Ki (D(1A) dopamine receptor): > 10000 nM; Ki (D(4) dopamine receptor): 122 nM
178 | 26.3 | 23.4 nM | O=c1ccc2ccc(OCCCCNCC3CC3c3cccc4c3OCCO4)cc2[nH]1 (stereo not given) | –
454 | 22.9 | 61.3 nM and 60.3 nM | COc1ccccc1C1CC1CNC/C=C/COc1ccc2c(c1)NC(=O)CC2 (stereo not given) | –
– | – | – | CN(C)C(=O)N[C@H]1CC[C@H](CCN2CCN(c3cccc(Cl)c3Cl)CC2)CC1 [CARIPRAZINE] | half-life at 10 min (in vitro [6]): 32.7 min; half-life at 10 min (in vitro [7]): 22.3 min
322 | – | – | CN(CCCCOc1ccc2c(c1)NC(=O)CC2)CC1CC1c1cccc(Cl)c1Cl (stereo not given) | –
1040 | – | – | COc1ccccc1C1CC1CNCC[C@H]1CC[C@H](NC(=O)c2ccccc2)CC1 (stereo not given in full) | –
2190 | – | – | COc1ccccc1C1CC1CNCC[C@H]1CC[C@H](NC(=O)N2CCCC2)CC1 (stereo not given in full) | –
– | – | – | COc1ccc(Cl)cc1[C@H]1C[C@@H]1CNCCCOc1ccc2ccc(=O)[nH]c2c1 | Ki [1]: 604 nM; Ki [2]: 1160 nM; Ki (D(1A) dopamine receptor): > 10000 nM; Ki (D(4) dopamine receptor): 604 nM
126 | 9.3 | 10 nM | COc1ccccc1C1CC1CNCCCOc1ccc2c(c1)NC(=O)CC2 (stereo not given) | –
366 | 18.9 | 35.7 nM | CSc1ccccc1C1CC1CNCCCCOc1ccc2c(c1)NC(=O)CC2 (stereo not given) | –
27.4 | 3.47 | 14.9 nM | COc1ccc(F)cc1C1CC1CNCCCOc1ccc2c(c1)NC(=O)CC2 (stereo not given) | –
259 | 891 | 417 nM | COc1ccccc1C1CC1CNCCCCCOc1ccc2c(c1)NC(=O)CC2 (stereo not given) | –
– | – | – | CN1CCc2ccccc2Cc2[nH]c3ccccc3c2CC1 | Ki (D(1A) dopamine receptor): 2.93 nM
– | – | – | COc1ccc(F)cc1[C@H]1C[C@@H]1CNCCCOc1ccc2ccc(=O)[nH]c2c1 | Ki [1]: 305 nM; Ki [2]: 520 nM; Ki (D(1A) dopamine receptor): > 10000 nM; Ki (D(4) dopamine receptor): 305 nM
95.2 | 2.88 | 7.43 nM | CSc1ccccc1C1CC1CNCCCCOc1ccc2ccc(=O)[nH]c2c1 (stereo not given) | –
1820 | – | – | COc1ccccc1C1CC1CNCC[C@H]1CC[C@H](NC(=O)N(C)C)CC1 (stereo not given in full) | –
